Results reported in PubChem BioAssay (NCI).
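Each compound was tested at five concentrations against cells in 96-well plates for 48 hours. GI50 = concentration required for 50% inhibition of growth. TGI: total growth inhibition.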

Tests used:
Test in all cases: inhibition of tumour cell growth, NCI panel, 48 h
HCT-15 colon = test system: HCT-15 colon
SK-MEL-5 melanoma = test system: SK-MEL-5 melanoma
IGROV1 ovarian = test system: IGROV1 ovarian
EKVX NSCLC = test system: EKVX NSCLC
UACC-62 melanoma = test system: UACC-62 melanoma
KM12 colon = test system: KM12 colon
SF-268 CNS = test system: SF-268 CNS
UACC-257 melanoma = test system: UACC-257 melanoma
SK-MEL-2 melanoma = test system: SK-MEL-2 melanoma
UO-31 renal = test system: UO-31 renal

Row | Compound | TGI (HCT-15 colon) [µM] | TGI (SK-MEL-5 melanoma) [µM] | TGI (IGROV1 ovarian) [µM] | TGI (EKVX NSCLC) [µM] | TGI (UACC-62 melanoma) [µM] | TGI (KM12 colon) [µM] | TGI (SF-268 CNS) [µM] | TGI (UACC-257 melanoma) [µM] | TGI (SK-MEL-2 melanoma) [µM] | TGI (UO-31 renal) [µM] | GI50 (HCT-15 colon) [µM] | GI50 (SK-MEL-5 melanoma) [µM] | GI50 (IGROV1 ovarian) [µM] | GI50 (EKVX NSCLC) [µM] | GI50 (UACC-62 melanoma) [µM] | GI50 (KM12 colon) [µM] | GI50 (SF-268 CNS) [µM] | GI50 (UACC-257 melanoma) [µM] | GI50 (SK-MEL-2 melanoma) [µM] | GI50 (UO-31 renal) [µM]
1 | CC1CC2=C(S(=O)(=O)c3ccccc3)CC(S(=O)(=O)c3ccccc3)(S(=O)(=O)c3ccccc3)CC21 (stereo not drawn) | > 100 | > 100 | > 100 | > 100 | > 100 | > 100 | > 100 | > 100 | > 100 | > 100 |  |  |  |  |  |  |  |  |  | 
2 | CCOC(=O)Cn1c(=O)ccn(COCCO)c1=O | > 100 | > 100 | > 100 | > 100 |  | > 100 | > 100 | > 100 | > 100 | > 100 |  |  |  |  |  |  |  |  |  | 
3 | Clc1ccc(C[P+](c2ccccc2)(c2ccccc2)c2ccccc2)c(Cl)c1 | > 100 | 3.38 | 15.6 | 31.4 | 12.6 | 7.01 | 24 | 7.64 | 7.71 |  |  |  |  |  |  |  |  |  |  | 
4 | C[C@@H]1Nc2cc(NC(=O)OCCF)nc(N)c2N=C1c1ccccc1 | > 100 | < 0.0001 | < 0.0001 |  | > 100 |  |  | > 100 |  | 89.1 |  |  |  |  |  |  |  |  |  | 
5 | CCOC(=O)CNC(=O)N(CC)C12CC3CC(CC(C3)C1)C2 | 228 | 195 | 524 | 358 | 218 | 453 | 317 | 322 | 205 | 358 |  |  |  |  |  |  |  |  |  | 
6 | CCOC(=O)c1ccc(N[C@@H]2c3cc4c(cc3C(c3cc(OC)c(O)c(OC)c3)[C@H]3C(=O)OCC32)OCO4)cc1O (stereo partly drawn) | 2.54 | 3.02 | > 43.5 | > 22.6 | 2.4 | 1.47 | 25.3 | > 100 | 1.83 | 78.1 |  |  |  |  |  |  |  |  |  | 
7 | COc1cc2oc(-c3ccc(O)cc3)c(OC)c(=O)c2c(O)c1OC | > 100 | > 100 | > 100 | > 100 | > 100 | > 100 | > 100 | > 100 | > 100 | > 100 | 23.3 | 70.1 | 76.6 | 97 | 79.3 | 78.9 | 79 | > 100 | 39.2 | 42.6
8 | CCOP(=O)(OCC)C(c1ccc(F)cc1)N(C(=O)NC(F)(F)F)c1cccc(C(F)(F)F)c1 (stereo not drawn) | > 100 | > 100 | > 100 | > 100 | > 100 | > 100 | > 100 | > 100 | > 100 | > 100 |  |  |  |  |  |  |  |  |  | 
9 | CCC(C)NC1=NCC(C)S1 (stereo not drawn) | > 100 | > 100 | > 100 | > 100 | > 100 | > 100 | > 100 | > 100 | > 100 | > 100 |  |  |  |  |  |  |  |  |  | 
10 | COCCCNc1nc(N)c(C#N)c(C#N)c1C#N | > 10 | > 10 | > 10 | > 10 | > 10 | > 10 | > 10 |  | > 10 | > 10 |  |  |  |  |  |  |  |  |  | 
11 | COc1ccc(S(=O)(=O)c2ccccc2[N+](=O)[O-])cc1 | > 100 | > 100 | > 100 | > 100 | > 100 | > 100 | > 100 | > 100 | > 100 | > 100 |  |  |  |  |  |  |  |  |  | 
12 | CC1CCCCNC1=S (stereo not drawn) | > 10 | > 10 | > 10 | > 10 | > 10 | > 10 | > 10 | > 10 | > 10 | > 10 |  |  |  |  |  |  |  |  |  | 
13 | CC(=O)Nc1ccc(/C=C/c2ccc(NC(=O)Nc3ccc(/C=C/c4ccc(NC(C)=O)cc4S(=O)(=O)O)c(S(=O)(=O)O)c3)cc2S(=O)(=O)O)c(S(=O)(=O)O)c1 | > 100 | > 100 | > 100 | > 100 | > 100 | > 100 | > 100 | > 100 | > 100 | > 100 |  |  |  |  |  |  |  |  |  | 
